From US12077503B2, “Substituted cyclic amides and their use as herbicides” (FMC CORPORATION, priority 2015, dated 2024)
Like-named read-outs stand apart in the source and are kept apart here.

Experiments:
Format in all cases: in vivo
[1] = tested on: ragweed (common ragweed, Ambrosia elatior); test: Test A preemergence; details: Ambrosia artemisiifolia, pre-emergence, 240 h; for pest or weed control at 125 g/ha: 125 g ai/ha, Preemergence, visual injury rating after approximately 10 d, read-out: Ragweed plant response rating (0 to 100 scale, 0 is no effect, 100 is complete control); for pest or weed control at 500 g/ha: 500 g ai/ha, preemergence, visual injury rating about 10 d after treatment, 0 to 100 scale (0 no effect, 100 complete control), read-out: Ragweed plant response rating
Outline: (§1)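 Seeds sprayed preemergence with a directed soil spray, or plants at 2 to 10 cm height and one- to two-leaf stage sprayed postemergence, with test chemicals in a non-phytotoxic solvent mixture containing surfactant, in loam soil–sand blend. Injury rated visually against untreated controls after about 10 d in greenhouse, 0 (no effect) to 100 (complete control).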

[2] = tested on: barnyardgrass (Echinochloa crus-galli); test: Test A preemergence; details: Echinochloa crus-galli, pre-emergence, 240 h; for pest or weed control at 125 g/ha: 125 g ai/ha, Preemergence, visual injury rating after approximately 10 d, read-out: Barnyardgrass plant response rating (0 to 100 scale, 0 is no effect, 100 is complete control); for pest or weed control at 500 g/ha: 500 g ai/ha, preemergence, visual injury rating about 10 d after treatment, 0 to 100 scale (0 no effect, 100 complete control), read-out: Barnyardgrass plant response rating
Outline: as §1

Kochia (Kochia scoparia) [3] = test: Test A preemergence; details: Bassia scoparia, pre-emergence, 240 h; for pest or weed control at 125 g/ha: 125 g ai/ha, Preemergence, visual injury rating after approximately 10 d, read-out: Kochia plant response rating (0 to 100 scale, 0 is no effect, 100 is complete control); for pest or weed control at 500 g/ha: 500 g ai/ha, preemergence, visual injury rating about 10 d after treatment, 0 to 100 scale (0 no effect, 100 complete control), read-out: Kochia plant response rating
Outline: as §1

[4] = tested on: giant foxtail (Setaria faberii); test: Test A preemergence; details: Setaria faberi, pre-emergence, 240 h; for pest or weed control at 125 g/ha: 125 g ai/ha, Preemergence, visual injury rating after approximately 10 d, read-out: Foxtail, Giant plant response rating (0 to 100 scale, 0 is no effect, 100 is complete control); for pest or weed control at 500 g/ha: 500 g ai/ha, preemergence, visual injury rating about 10 d after treatment, 0 to 100 scale (0 no effect, 100 complete control), read-out: Foxtail, Giant plant response rating
Outline: as §1

[5] = tested on: ryegrass, Italian (Italian ryegrass, Lolium multiflorum); test: Test A preemergence; details: Lolium multiflorum, pre-emergence, 240 h; for pest or weed control at 500 g/ha: 500 g ai/ha, preemergence, visual injury rating about 10 d after treatment, 0 to 100 scale (0 no effect, 100 complete control), read-out: Ryegrass, Italian plant response rating
Outline: as §1

[6] = tested on: pigweed (Amaranthus retroflexus); test: Test A preemergence; details: Amaranthus retroflexus, pre-emergence, 240 h; for pest or weed control at 125 g/ha: 125 g ai/ha, Preemergence, visual injury rating after approximately 10 d, read-out: Pigweed plant response rating (0 to 100 scale, 0 is no effect, 100 is complete control); for pest or weed control at 500 g/ha: 500 g ai/ha, preemergence, visual injury rating about 10 d after treatment, 0 to 100 scale (0 no effect, 100 complete control), read-out: Pigweed plant response rating
corn (Zea mays) = test: Test A postemergence; details: Zea mays, post-emergence, 240 h; for Corn plant response rating (crop injury, 0 = no effect, 100 = complete kill) at 125 g/ha: 125 g ai/ha, Postemergence, visual injury after approximately 10 d, 0 to 100 scale where 0 is no effect and 100 is complete control; for Corn plant response rating (crop injury, 0 = no effect, 100 = complete kill) at 500 g/ha: 500 g ai/ha, postemergence, visual injury, 0 to 100 scale (0 no effect, 100 complete control), approx. 10 d
Outline: as §1

[7] = tested on: ragweed (common ragweed, Ambrosia elatior); test: Test A postemergence; details: Ambrosia artemisiifolia, post-emergence, 240 h; for pest or weed control at 125 g/ha: 125 g ai/ha; for pest or weed control at 500 g/ha: 500 g ai/ha, visual injury, 0 to 100 scale (0 no effect, 100 complete control)
Outline: as §1

[8] = tested on: barnyardgrass (Echinochloa crus-galli); test: Test A postemergence; details: Echinochloa crus-galli, post-emergence, 240 h, read-out: Plant response rating, Barnyardgrass; for pest or weed control at 125 g/ha: 125 g ai/ha, Postemergence, visual injury after approximately 10 d, 0 to 100 scale where 0 is no effect and 100 is complete control; for pest or weed control at 500 g/ha: 500 g ai/ha, postemergence, visual injury, 0 to 100 scale (0 no effect, 100 complete control), approx. 10 d
Outline: as §1

Kochia (Kochia scoparia) [9] = test: Test A postemergence; details: Bassia scoparia, post-emergence, 240 h; for pest or weed control at 125 g/ha: 125 g ai/ha; for pest or weed control at 500 g/ha: 500 g ai/ha, visual injury, 0 to 100 scale (0 no effect, 100 complete control)
Outline: as §1

[10] = tested on: giant foxtail (Setaria faberii); test: Test A postemergence; details: Setaria faberi, post-emergence, 240 h; for pest or weed control at 125 g/ha: 125 g ai/ha; for pest or weed control at 500 g/ha: 500 g ai/ha, visual injury, 0 to 100 scale (0 no effect, 100 complete control)
Outline: as §1

[11] = tested on: Galium (catchweed bedstraw, Galium aparine); test: Test A postemergence; details: Galium, post-emergence, 240 h; for pest or weed control at 125 g/ha: 125 g ai/ha; for pest or weed control at 500 g/ha: 500 g ai/ha, visual injury, 0 to 100 scale (0 no effect, 100 complete control)
Outline: as §1

[12] = tested on: ryegrass, Italian (Italian ryegrass, Lolium multiflorum); test: Test A postemergence; details: Lolium multiflorum, post-emergence, 240 h; for pest or weed control at 125 g/ha: 125 g ai/ha; for pest or weed control at 500 g/ha: 500 g ai/ha, visual injury, 0 to 100 scale (0 no effect, 100 complete control)
Outline: as §1

[13] = tested on: pigweed (Amaranthus retroflexus); test: Test A postemergence; details: Amaranthus retroflexus, post-emergence, 240 h; for pest or weed control at 125 g/ha: 125 g ai/ha; for pest or weed control at 500 g/ha: 500 g ai/ha, visual injury, 0 to 100 scale (0 no effect, 100 complete control)
Outline: as §1

[14] = tested on: wheat (Triticum aestivum); test: Test A postemergence; details: Triticum aestivum, post-emergence, 240 h; for plant injury at 125 g/ha: 125 g ai/ha; for plant injury at 500 g/ha: 500 g ai/ha, visual injury, 0 to 100 scale (0 no effect, 100 complete control)
Outline: as §1

[15] = postemergence, approx. 10 d, read-out: Plant response rating, Ragweed
[16] = postemergence, approx. 10 d, read-out: Plant response rating, Kochia
[17] = postemergence, approx. 10 d, read-out: Plant response rating, Foxtail, Giant
[18] = postemergence, approx. 10 d, read-out: Plant response rating, Galium
[19] = postemergence, approx. 10 d, read-out: Plant response rating, Ryegrass, Italian
[20] = postemergence, approx. 10 d, read-out: Plant response rating, Pigweed
[21] = postemergence, approx. 10 d, read-out: Plant response rating, Wheat

| SMILES | pest or weed control at 125 g/ha [1] [%] | pest or weed control at 500 g/ha [1] [%] | pest or weed control at 125 g/ha [2] [%] | pest or weed control at 500 g/ha [2] [%] | pest or weed control at 125 g/ha (Kochia (Kochia scoparia) [3]) [%] | pest or weed control at 500 g/ha (Kochia (Kochia scoparia) [3]) [%] | pest or weed control at 125 g/ha [4] [%] | pest or weed control at 500 g/ha [4] [%] | pest or weed control at 500 g/ha [5] [%] | pest or weed control at 125 g/ha [6] [%] | pest or weed control at 500 g/ha [6] [%] | Corn plant response rating (crop injury, 0 = no effect, 100 = complete kill) at 125 g/ha (corn (Zea mays)) [%] | Corn plant response rating (crop injury, 0 = no effect, 100 = complete kill) at 500 g/ha (corn (Zea mays)) [%] | pest or weed control at 500 g/ha [7, 15] [%] | pest or weed control at 125 g/ha [8] [%] | pest or weed control at 500 g/ha [8] [%] | pest or weed control at 500 g/ha (Kochia (Kochia scoparia) [9]; [16]) [%] | pest or weed control at 500 g/ha [10, 17] [%] | pest or weed control at 500 g/ha [11, 18] [%] | pest or weed control at 500 g/ha [12, 19] [%] | also measured |
| --- | --- | --- | --- | --- | --- | --- | --- | --- | --- | --- | --- | --- | --- | --- | --- | --- | --- | --- | --- | --- | --- |
| Cc1ccc([C@H]2CNC(=O)[C@@H]2C(=O)Nc2cccc(F)c2C)cc1C [Compound 1035] | 20 | 70 | 90 | 90 | 0 | 50 | 90 | 90 | 70 | 0 | 0 | 50 | 60 | 0 | 90 | 90 | 20 | 90 | 50 | 60 | pest or weed control at 125 g/ha ([7]; postemergence, visual injury on 0 to 100 scale (0 no effect, 100 complete control), approx. 10 d, read-out: Ragweed plant response rating): 0%; pest or weed control at 125 g/ha (Kochia (Kochia scoparia) [9]; postemergence, visual injury on 0 to 100 scale (0 no effect, 100 complete control), approx. 10 d, read-out: Kochia plant response rating): 0%; pest or weed control at 125 g/ha ([10]; postemergence, visual injury on 0 to 100 scale (0 no effect, 100 complete control), approx. 10 d, read-out: Foxtail, Giant plant response rating): 50%; pest or weed control at 125 g/ha ([11]; postemergence, visual injury on 0 to 100 scale (0 no effect, 100 complete control), approx. 10 d, read-out: Galium plant response rating): 20%; pest or weed control at 125 g/ha ([12]; postemergence, visual injury on 0 to 100 scale (0 no effect, 100 complete control), approx. 10 d, read-out: Ryegrass, Italian plant response rating): 40%; pest or weed control at 125 g/ha ([13]; postemergence, visual injury on 0 to 100 scale (0 no effect, 100 complete control), approx. 10 d, read-out: Pigweed plant response rating): 0%; pest or weed control at 500 g/ha [13, 20]: 0%; plant injury at 125 g/ha ([14]; postemergence, visual injury on 0 to 100 scale (0 no effect, 100 complete control), approx. 10 d, read-out: Wheat plant response rating): 20%; plant injury at 500 g/ha [14, 21]: 70% |
| O=C1NC[C@H](c2ccc3c(c2)OCO3)[C@H]1C(=O)Nc1ccc(F)cc1F [Compound 1026] | 50 | 50 | 90 | 90 | 30 | 80 | 30 | 90 | 0 | 0 | 0 | 0 | 30 | 0 | 70 | 90 | 0 | 20 | 50 | 0 | pest or weed control at 125 g/ha ([5]; 125 g ai/ha, Preemergence, visual injury rating after approximately 10 d, read-out: Ryegrass, Italian plant response rating (0 to 100 scale, 0 is no effect, 100 is complete control)): 0%; pest or weed control at 125 g/ha ([7]; Postemergence, visual injury after approximately 10 d, 0 to 100 scale where 0 is no effect and 100 is complete control, read-out: Plant response rating, Ragweed): 0%; pest or weed control at 125 g/ha (Kochia (Kochia scoparia) [9]; Postemergence, visual injury after approximately 10 d, 0 to 100 scale where 0 is no effect and 100 is complete control, read-out: Plant response rating, Kochia): 0%; pest or weed control at 125 g/ha ([10]; Postemergence, visual injury after approximately 10 d, 0 to 100 scale where 0 is no effect and 100 is complete control, read-out: Plant response rating, Foxtail, Giant): 0%; pest or weed control at 125 g/ha ([11]; Postemergence, visual injury after approximately 10 d, 0 to 100 scale where 0 is no effect and 100 is complete control, read-out: Plant response rating, Galium): 0%; pest or weed control at 125 g/ha ([12]; Postemergence, visual injury after approximately 10 d, 0 to 100 scale where 0 is no effect and 100 is complete control, read-out: Plant response rating, Ryegrass, Italian): 0%; pest or weed control at 125 g/ha ([13]; Postemergence, visual injury after approximately 10 d, 0 to 100 scale where 0 is no effect and 100 is complete control, read-out: Plant response rating, Pigweed): 0%; pest or weed control at 500 g/ha [13, 20]: 0%; plant injury at 125 g/ha ([14]; Postemergence, visual injury after approximately 10 d, 0 to 100 scale where 0 is no effect and 100 is complete control, read-out: Plant response rating, Wheat): 20%; plant injury at 500 g/ha [14, 21]: 30% |
